The test system of assay [1] is MDA-MB-231 cells. Nature of the assay: Sulforhodamine B antiproliferative assay, MDA-MB-231. Format: cell-based, human. The following applies: for IC50: sulforhodamine B assay, 48 h of treatment, read-out: IC50 MDA-MDB-231 (A); for SI E/A / SI D/A: selectivity index; for SI E/A: HFF-1 vs MDA-MB-231; for SI D/A: MCF12A vs MDA-MB-231. As to the method:
(§1) The antiproliferative effect of the isolated compounds (1–11) was investigated by the sulforhodamine B assay against human triple-negative breast cancer cell lines (MDA-MB-468 and MDA-MB-231) and breast ductal carcinoma cells (MCF-7) and the non-tumorigenic fibroblast (HFF-1) and breast cell lines (MCF12A). The IC50 values were determined after 48 h of treatment (Table 1).
(§2) Human breast adenocarcinoma MDA-MB-231, MDA-MB-468, and MCF-7 cell lines and non-tumorigenic foreskin fibroblast (HFF-1) and breast (MCF12A) cell lines were purchased from American Type Culture Collection (ATCC, Rockville, MD, USA). All cancer cell lines, except MCF12A, were routinely cultured in RPMI-1640 medium with glutamine from Corning (VWR, Carnaxide, Portugal) supplemented with 10% fetal bovine serum (FBS) from Biowest (Labclinics, Barcelona, Spain). MCF12A cells were cultured in a 1:1 mixture of Dulbecco’s modified Eagle’s medium and Ham’s F12 medium, 20 ng/mL human epidermal growth factor, 100 ng/mL cholera toxin, 0.01 mg/mL bovine insulin, and 500 ng/mL hydrocortisone and supplemented with 10% FBS. All cells were maintained in a humidified incubator at 37 °C with 5% CO2. All cells were routinely tested for mycoplasma contamination using the MycoAlertTM PLUS detection kit (Lonza, Basel, Switzerland).
(§3) Human cell lines were seeded in 96-well plates at a density of 5.0 × 10^3 (MDA-MB-231, MCF-7, HFF-1, and MCF12A) and 7.5 × 10^3 (MDA-MB-468) cells/well and allowed to adhere for 24 h. Cells were treated with serial dilutions of compounds (ranging from 0.1 to 40 μM) for an additional 48 h. Effect on cell proliferation was measured by sulforhodamine B assay, as described in [33], and the half-maximal inhibitory concentration (IC50) was then determined for each cell line using the GraphPad Prism software version 7.0 (La Jolla, CA, USA).
A general note: The SRB assay estimates cell density from bound dye.

For assay [2], the system named is MDA-MB-468 cells. Nature of the assay: Sulforhodamine B antiproliferative assay, MDA-MB-468. Format: cell-based, human. The following applies: for IC50: sulforhodamine B assay, 48 h of treatment; for SI E/B / SI D/B: selectivity index; for SI E/B: HFF-1 vs MDA-MB-468; for SI D/B: MCF12A vs MDA-MB-468. As to the method:
as §1, §2, §3

Assay [3] relates to MCF-7 cells. Nature of the assay: Sulforhodamine B antiproliferative assay, MCF-7. Type of assay: cell-based, human. The conditions noted are these: for IC50: sulforhodamine B assay, 48 h of treatment, read-out: IC50 MCF-7 (C); for SI E/C / SI D/C: selectivity index; for SI E/C: HFF-1 vs MCF-7; for SI D/C: MCF12A vs MCF-7. As to the method: as §1, §2, §3
Assay [4] relates to MCF12A cells. Nature of the assay: Sulforhodamine B antiproliferative assay, non-tumorigenic breast MCF12A. The following applies: Homo sapiens, MCF-12A, 48 h of treatment, read-out: IC50 MCF12A (D). Type of assay: cell-based. The protocol:
as §1, §2, §3

In assay [5] the test system is HFF-1 cells. Nature of the assay: Sulforhodamine B antiproliferative assay, non-tumorigenic fibroblast HFF-1. The conditions noted are these: Homo sapiens, 48 h of treatment, read-out: IC50 HFF-1 (E). Type of assay: cell-based. The protocol:
as §1, §2, §3

Assay [6] has as its system breast cancer cell lines (MDA-MB-231, MDA-MB-468, MCF-7). Nature of the assay: Sulforhodamine B assay, all breast cancer cell lines. Format: cell-based. The following applies: Homo sapiens, read-out: IC50 values against all breast cancer cell lines. As to the method: Aiming to find Amaryllidaceae alkaloids against breast cancer, including the highly aggressive triple-negative breast cancer, the phytochemical study of Pancratium maritimum was carried out. Several Amaryllidaceae-type alkaloids, bearing scaffolds of the haemanthamine-, homolycorine-, lycorine-, galanthamine-, and tazettine-type were isolated (3–11), along with one alkamide (2) and a phenolic compound (1). The antiproliferative effect of compounds (1–11) was evaluated by the sulforhodamine B assay against triple-negative breast cancer cell lines MDA-MB-231 and MDA-MB-468, breast cancer cells MCF-7, and the non-malignant fibroblast (HFF-1) and breast (MCF12A) cell lines. […] The homolycorine-type alkaloid 7 was selected for further investigation in MDA-MB-231 cells. In the annexin-V assay, compound 7 increased cell death by apoptosis, which was substantiated, in western blot analyses, by the increased expression of the pro-apoptotic protein Bax, and the decreased expression of the anti-apoptotic protein Bcl-xL. Consistently, it further stimulated mitochondrial reactive oxygen species (ROS) generation. The antiproliferative effect of compound 7 was also associated with G2/M cell cycle arrest, which was supported by an increase in the p21 protein expression levels.
as §3

The subject of assay [7] is MDA-MB-231 cells. Details: method as in PMID 28756149. The following applies: previous studies ref 30; cited from earlier work.
The mark [8] stands for this setting: range over the four alkaloids and MDA-MB-231, MDA-MB-468, MCF-7.

The structures appear in SMILES notation. Like-named read-outs stand apart in the source and are kept apart here. A value given as a limit tells only on which side of the number the result lay.

As to `CO[C@@H]1C=C[C@@]23c4cc5c(cc4[C@@H](O)N(C[C@H]2O)[C@H]3C1)OCO5` [Compound 3, haemanthidine], the IC50 in assay [1] (Homo sapiens, MDA-MB-231, 48 h) turned out to be 4880 nM; in assay [1] it was 4900 ± 1160 nM; in assay [2] (Homo sapiens, MDA-MB-468, 48 h) it was 3500 ± 300 nM; in assay [3] (Homo sapiens, MCF7, 48 h), 2700 ± 100 nM; in assay [4] it was 5000 ± 500 nM; in assay [5], 2700 ± 150 nM. Besides, in assay [6] (setting [8]), the IC50 is 730 to 16300 nM. The “SI E/A” value in assay [1] came out at 0.56. For the same compound, in assay [1], the “SI D/A” value amounted to 1.02. Further, the “SI E/B” value in assay [2] worked out at 0.78. In assay [2], the “SI D/B” value amounted to 1.42. Besides, in assay [3], the “SI E/C” value was 1.01. In addition, the “SI D/C” value in assay [3] came out at 1.85. Also, in assay [7], the “antiproliferative activity against MDA-MB-231 breast cancer cells” value is recorded as “antiproliferative activity”.

As for `CN1CCC2=C[C@H](O)C3OC(=O)c4cc5c(cc4C3C21)OCO5` (stereo partly drawn) [Compound 4, hippeastrine], in assay [1] (Homo sapiens, MDA-MB-231, 48 h), the concentration for half-maximal inhibition (IC50) was 24700 ± 4300 nM.

In the case of `O[C@H]1[C@H]2c3cc4c(cc3CN3CCC(=C[C@@H]1O)[C@H]23)OCO4` [Compound 5, lycorine], the concentration for half-maximal inhibition (IC50) in assay [1] (Homo sapiens, MDA-MB-231, 48 h) worked out at 920 nM; in assay [1], 900 ± 200 nM; in assay [2] (Homo sapiens, MDA-MB-468, 48 h) it was 1420 nM; in assay [2], 1400 ± 10 nM; in assay [3] (Homo sapiens, MCF7, 48 h), 730 nM; in assay [3], 700 ± 10 nM. The IC50 was 3000 ± 300 nM in assay [4], 1300 ± 300 nM in assay [5] and 730 to 16300 nM in assay [6] (setting [8]). Further, in assay [1], the “SI E/A” value amounted to 1.41. In addition, in assay [1], the “SI D/A” value is given as 3.26. The “SI E/B” value in assay [2] is on record as 0.91. Moreover, the “SI D/B” value in assay [2] was 2.11. Also, the “SI E/C” value in assay [3] is given as 1.78. In assay [7], the “antiproliferative activity against MDA-MB-231 breast cancer cells” value is given as “antiproliferative activity”.

Take `COc1cc2c(cc1O)C(=O)OC1CC=C3CCN(C)C3C21` (stereo not drawn) [Compound 9, 8-O-demethylhomolycorine]: the IC50 in assay [1] (Homo sapiens, MDA-MB-231, 48 h) is above 40000 nM.

In the case of `CO[C@@H]1C=C[C@@]23c4cc5c(cc4CO[C@]2(O)CN(C)[C@H]3C1)OCO5` [Compound 10, tazettine], the IC50 in assay [1] (Homo sapiens, MDA-MB-231, 48 h) stood at 39000 ± 1410 nM.

With `COc1cc(/C=C/C(=O)NCCc2ccc(O)cc2)ccc1O` [Compound 2, N-trans-feruloyl-tyramine], in assay [1] (Homo sapiens, MDA-MB-231, 48 h), the IC50 was above 40000 nM.

Regarding `COC1C=CC23c4cc5c(cc4CN(CC2O)C3C1)OCO5` (stereo not drawn) [Compound 11, haemanthamine], the IC50 in assay [1] (Homo sapiens, MDA-MB-231, 48 h) is 3950 nM; in assay [1] it was 3900 ± 970 nM; in assay [2] (Homo sapiens, MDA-MB-468), 3800 ± 400 nM; in assay [3] (Homo sapiens, MCF7), 1600 ± 100 nM; in assay [4], 6500 ± 1100 nM; in assay [5] it was 2700 ± 720 nM. Further, in assay [6], the 50% inhibitory concentration (IC50) fell in the range of 730 to 16300 nM. Besides, the “SI E/A” value in assay [1] amounted to 0.68. Also, the “SI D/A” value in assay [1] came to 1.64. For the same compound, the “SI E/B” value in assay [2] is listed as 0.71. Moreover, in assay [2], the “SI D/B” value came to 1.71. Besides, in assay [3], the “SI E/C” value came out at 1.7. Besides, in assay [7], the “antiproliferative activity against MDA-MB-231 breast cancer cells” value is “antiproliferative activity”.

For the compound `COc1cc(O)c(C(C)=O)c(OC)c1` [Compound 1, 4,6-dimethoxy-2-hydroxy acetophenone], in assay [1] (Homo sapiens, MDA-MB-231, 48 h), the IC50 is above 40000 nM.

As to `COc1ccc2c3c1O[C@H]1C[C@@H](O)C=C[C@@]31C(O)CN(C)C2` (stereo partly drawn) [Compound 6, 11α-hydroxygalanthamine], in assay [1] (Homo sapiens, MDA-MB-231, 48 h), the IC50 is above 40000 nM.

Take `COc1cc([C@@H]2c3cc4c(cc3[C@@H](O[C@@H]3O[C@@H]5CO[C@@H](C)O[C@H]5[C@H](O)[C@H]3O)[C@H]3COC(=O)[C@H]23)OCO4)cc(OC)c1O` [Etoposide, reference compound]: the half-inhibitory concentration (IC50) in assay [1] (Homo sapiens, MDA-MB-231, 48 h) turned out to be 2900 ± 100 nM; in assay [2] (Homo sapiens, MDA-MB-468, 48 h), 1700 ± 50 nM; in assay [3] (Homo sapiens, MCF7, 48 h), 3100 ± 50 nM; in assay [4], 2300 ± 130 nM; in assay [5] it was 3800 ± 90 nM. Also, in assay [1], the “SI E/A” value amounted to 1.31. In addition, in assay [1], the “SI D/A” value was 0.79. For the same compound, in assay [2], the “SI E/B” value turned out to be 2.23. Moreover, the “SI D/B” value in assay [2] is given as 1.35. In assay [3], the “SI E/C” value is 1.23. The “SI D/C” value in assay [3] was found to be 0.74.

`COc1ccc2c3c1O[C@H]1C[C@H](O)C=C[C@@]31CCN(C)C2` [Compound 8, epi-galanthamine]: in assay [1] (Homo sapiens, MDA-MB-231, 48 h), the IC50 was above 40000 nM.

What is called IC50 is the concentration that inhibits the measured activity by half.

The values are drawn from article PMC9501014, “Amaryllidaceae-Type Alkaloids from Pancratium maritimum: Apoptosis-Inducing Effect and Cell Cycle Arrest on Triple-Negative Breast Cancer Cells” (Molecules, 2022).
